Data taken from patent US8148387B2, “AKT and P70 S6 kinase inhibitors” (Eli Lilly and Company, priority 2008, dated 2012).
Values joined by “and” are separate entries in the source; they are usually repeats but may differ in a detail not shown here. Equal values may be shown once. Each block holds one compound with its values, some of them ahead of it.

Assays:
ACHN = test: Combination studies, fixed ratio method, cell proliferation, ACHN; type: cell-based; conditions: combination with Rapamycin
Source text: (§1) The combination studies use the fixed ratio method, where the compound of the present invention and the other therapeutic agent are present in fixed ratios of concentrations corresponding to the IC50 equivalents of single agents. The readout for the combination studies is cell proliferation in respective cell lines using Cell Titer Glo reagents. Controls are processed similarly but without the compound of the present invention or the other therapeutic agent. Analysis of the data is done according to the method described in Zhao et. al., Clinical Cancer Research, 10, 7994-8004 (2004) utilizing a web based tool. A combination index is calculated for a range of cell proliferation inhibition activity levels according to the equation below. Combination Index at activity level x=[Concentration of other therapeutic agent in the combination at the activity level x/ICx of the other therapeutic agent]+[Concentration of the compound of the present invention in the combination at the activity level x/ICx of the compound of the present invention] For clarity, Combination index values at 50% inhibition are summarized below.

HCT116 [1] = test: Combination studies, fixed ratio method, cell proliferation, HCT116; type: cell-based
Source text: as §1

786-0 = test: Combination studies, fixed ratio method, cell proliferation, 786-0; type: cell-based; conditions: combination with Rapamycin
Source text: as §1

BT474 = test: Cell Proliferation Assay (CellTiter-Glo), BT474; type: cell-based; conditions: Homo sapiens, BT-474; BT474, 72 hr
Procedure: (§2) The proliferation assay uses the CellTiter-Glo Luminescent Cell Viability Assay System (commercially available from Promega) to determine the cell number of viable cells in culture based on quantitation of the ATP present, which signals the presence of metabolically active cells.
(§3) The cells are plated in 96-well plate at 2000 cells/well in volume of 50 μL medium (DMEM, 10% FBS, 25 mM HEPES, 1.0 mM Sodium Pyruvate, and 0.1 mM Non Essential Amino Acids) except column 1 with medium only as blank control. The plates are incubated overnight at 37° C. and 5% CO2. On the next day, compound stocks are prepared at 40 mM in DMSO (500×) and serially diluted in DMSO in a 96-well round bottom polypropylene plate. Compounds are assayed at 10 concentrations in duplicate, 4 compounds per plate.
(§4) 4 μL of the serial DMSO dilutions are transferred to a 96 deep-well plate and 1 mL complete culture medium is added to create 2× stock for dosing. 50 μL of each 2× dosing stock is gently transferred to the corresponding well of the cell plate resulting in a 0.2% DMSO concentration and a 100 μL final volume. […] medium are added to the Control columns (Column 12) and background columns (Column 1). Cells are incubated with compound for at 37° C., 5% CO2 for 72 hr. […]

786-O = test: Cell Proliferation Assay (CellTiter-Glo), 786-O; type: cell-based; conditions: Homo sapiens, 786-0, 72 hr
Procedure: as §2, §3, §4

PC3 = test: Cell Proliferation Assay (CellTiter-Glo), PC3; type: cell-based; conditions: Homo sapiens, PC-3; PC3, 72 hr
Procedure: as §2, §3, §4

CAKI-1 = test: Combination studies, fixed ratio method, cell proliferation, CAKI-1; type: cell-based; conditions: combination with Rapamycin
Source text: as §1

H69 = test: Cell Proliferation Assay (CellTiter-Glo), H69; type: cell-based; conditions: Homo sapiens, NCI-H69; H69, 72 hr
Procedure: as §2, §3, §4

A2780 [2] = test: Cell Proliferation Assay (CellTiter-Glo), A2780; type: cell-based; conditions: Homo sapiens; A2780, 72 hr
Procedure: as §2, §3, §4

NCIH460 = test: Combination studies, fixed ratio method, cell proliferation, NCIH460; type: cell-based
Source text: as §1

Calu6 = test: Combination studies, fixed ratio method, cell proliferation, Calu6; type: cell-based
Source text: as §1

H1155 [3] = test: Cell Proliferation Assay (CellTiter-Glo), H1155; type: cell-based; conditions: Homo sapiens, NCI-H1155; H1155, 72 hr
Procedure: as §2, §3, §4

HCT116 [4] = test: Cell Proliferation Assay (CellTiter-Glo), HCT116; type: cell-based; conditions: Homo sapiens, HCT-116; HCT116, 72 hr
Procedure: as §2, §3, §4

A2780 [5] = test: Combination studies, fixed ratio method, cell proliferation, A2780; type: cell-based
Source text: as §1

U87MG = test: Cell Proliferation Assay (CellTiter-Glo), U87MG; type: cell-based; conditions: Homo sapiens, U-87 MG, 72 hr
Procedure: as §2, §3, §4

69AR = test: Cell Proliferation Assay (CellTiter-Glo), 69AR; type: cell-based; conditions: 72 hr
Procedure: as §2, §3, §4

OPM-2 = test: Cell Proliferation Assay (CellTiter-Glo), OPM-2; type: cell-based; conditions: Homo sapiens; OPM-2, 72 hr
Procedure: as §2, §3, §4

H1155 [6] = test: Combination studies, fixed ratio method, cell proliferation, H1155; type: cell-based
Source text: as §1

human HERG K+ channel = molecular target: T1, human HERG K+ channel (Homo sapiens, UniProt Q12809); test: HERG Assay, [3H]astemizole radioligand binding; conditions: transfected HEK-293 cell membranes, 2 nM [3H]astemizole
T1 construct: expressed in transfected cells; host or cells: HEK-293
Procedure: Evaluation of the affinity of compounds for the human HERG K^+ channel in transfected HEK-293 cells is determined in a radioligand binding assay. Cell membrane homogenates (40 μg protein) are incubated for 75 min at 22° C. with 2 nM [^3H]astemizole in the absence or presence of the test compound in a buffer containing 50 mM Tris-HCl (pH 7.4), 10 mM KCl, 1.2 mM MgCl2 and 0.1% Bovine serum albumin (BSA). Nonspecific binding is determined in the presence of 10 μM astemizole. Following incubation, the samples are filtered rapidly under vacuum through glass fiber filters (GF/B, Packard) presoaked with 0.3% PEI and rinsed several times with ice-cold 50 mM Tris-HCl using a 96-sample cell harvester (Unifilter, Packard). The filters are dried then counted for radioactivity in a scintillation counter (Topcount, Packard) using a scintillation cocktail (Microscint 0, Packard). The results are expressed as a percent inhibition of the control radioligand specific binding. The standard reference compound is astemizole, which is tested in each experiment at several concentrations to obtain a competition curve from which its IC50 is calculated. (Finalayson et al, [^3H]dofetilide binding in SHSYSY and HEK293 cells expressing a HERG-like K^+ channels, Eur. J. Pharmacol., 412: 203 (2001)).

T1 sequence (Q12809 whole entry): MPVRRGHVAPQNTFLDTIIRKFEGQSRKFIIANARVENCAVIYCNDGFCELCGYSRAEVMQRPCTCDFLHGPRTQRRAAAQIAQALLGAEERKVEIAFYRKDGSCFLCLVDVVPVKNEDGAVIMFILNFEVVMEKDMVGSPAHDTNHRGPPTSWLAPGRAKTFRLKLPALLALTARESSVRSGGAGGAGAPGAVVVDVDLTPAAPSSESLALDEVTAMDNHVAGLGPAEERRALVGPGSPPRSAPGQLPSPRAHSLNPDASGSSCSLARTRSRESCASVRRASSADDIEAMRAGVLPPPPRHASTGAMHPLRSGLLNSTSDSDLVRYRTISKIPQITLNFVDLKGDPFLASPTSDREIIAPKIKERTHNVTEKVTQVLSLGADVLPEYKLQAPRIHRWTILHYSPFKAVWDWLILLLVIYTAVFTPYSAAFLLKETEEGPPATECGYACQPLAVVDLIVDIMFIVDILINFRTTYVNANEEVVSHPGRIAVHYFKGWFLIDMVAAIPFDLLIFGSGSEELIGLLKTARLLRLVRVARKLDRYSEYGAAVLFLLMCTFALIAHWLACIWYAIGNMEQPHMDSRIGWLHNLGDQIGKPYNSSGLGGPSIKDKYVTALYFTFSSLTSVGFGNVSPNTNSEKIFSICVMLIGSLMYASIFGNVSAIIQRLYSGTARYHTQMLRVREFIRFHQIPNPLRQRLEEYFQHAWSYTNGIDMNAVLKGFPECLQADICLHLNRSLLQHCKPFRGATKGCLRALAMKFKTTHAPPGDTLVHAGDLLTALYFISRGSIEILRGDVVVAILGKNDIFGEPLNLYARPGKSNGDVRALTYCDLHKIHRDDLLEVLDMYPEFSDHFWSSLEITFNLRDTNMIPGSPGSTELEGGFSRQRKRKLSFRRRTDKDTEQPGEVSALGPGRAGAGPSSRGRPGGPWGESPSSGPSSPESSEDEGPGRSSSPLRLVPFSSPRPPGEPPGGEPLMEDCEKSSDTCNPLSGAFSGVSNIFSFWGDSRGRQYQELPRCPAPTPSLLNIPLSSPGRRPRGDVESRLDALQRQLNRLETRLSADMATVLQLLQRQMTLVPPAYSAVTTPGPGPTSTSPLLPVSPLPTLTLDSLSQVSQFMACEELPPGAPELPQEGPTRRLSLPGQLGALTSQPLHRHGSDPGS

- IC50 (BT474): 7.9 µM
- IC50 (786-O): 3.4 µM
- IC50 (PC3): 6.2 µM
- IC50 (A2780 [2]): 5.9 µM
- IC50 (H1155 [3]): 4.9 µM
- IC50 (HCT116 [4]): 7.5 µM
- IC50 (U87MG): > 10 µM
Structure (SMILES): CN(C)CCn1cc(-c2ccc(F)c(C(F)(F)F)c2)nc1C1CCN(c2ncnc3c2CC(=O)N3)CC1 [Example 45, 4-{4-[1-(2-Dimethylamino-ethyl)-4-(4-fluoro-3-trifluoromethyl-phenyl)-1H-imidazol-2-yl]piperidin-1-yl}-5,7-dihydro-pyrrolo[2,3-d]-pyrimidin-6-one]
- COMBINATION INDEX AT 50% INHIBITION (ACHN): 0.12
- COMBINATION INDEX AT 50% INHIBITION (HCT116 [1]; combination with Cetuximab): 2.02
- COMBINATION INDEX AT 50% INHIBITION (HCT116 [1]; combination with Irinotecan): 0.82
- COMBINATION INDEX AT 50% INHIBITION (786-0): 0.41
- COMBINATION INDEX AT 50% INHIBITION (CAKI-1): 0.33
- IC50 (H69): 6.3 µM
- COMBINATION INDEX AT 50% INHIBITION (NCIH460; combination with Cisplatin): 0.56
- COMBINATION INDEX AT 50% INHIBITION (NCIH460; combination with Docetaxel): 0.67
- COMBINATION INDEX AT 50% INHIBITION (NCIH460; combination with Erlotinib): 0.38
- COMBINATION INDEX AT 50% INHIBITION (NCIH460; combination with Gemcitabine): 0.86
- COMBINATION INDEX AT 50% INHIBITION (NCIH460; combination with Pemetrexed): 0.97
- COMBINATION INDEX AT 50% INHIBITION (Calu6; combination with Cisplatin): 0.57
- COMBINATION INDEX AT 50% INHIBITION (Calu6; combination with Docetaxel): 0.94
- COMBINATION INDEX AT 50% INHIBITION (Calu6; combination with Erlotinib): 0.10
- COMBINATION INDEX AT 50% INHIBITION (Calu6; combination with Gemcitabine): 1.13
- COMBINATION INDEX AT 50% INHIBITION (Calu6; combination with Tasisulam): 1.19
- COMBINATION INDEX AT 50% INHIBITION (A2780 [5]; combination with Cisplatin): 1.04 and 0.64
- COMBINATION INDEX AT 50% INHIBITION (A2780 [5]; combination with Doxorubicin•HCl): 0.65 and 0.96
- IC50 (69AR): 9.4 µM
- IC50 (OPM-2): 2.3 µM
- COMBINATION INDEX AT 50% INHIBITION (H1155 [6]; combination with Cisplatin): 0.58
- COMBINATION INDEX AT 50% INHIBITION (H1155 [6]; combination with Erlotinib): 0.43
- COMBINATION INDEX AT 50% INHIBITION (H1155 [6]; combination with Gemcitabine): 0.87

Structure (SMILES): O=C1Cc2c(ncnc2N2CCC(c3nc(-c4ccc(F)c(F)c4)cn3CCN3CCCC3)CC2)N1 [Example 37, 4-{4-[4-(3,4-Difluoro-phenyl)-1-(2-pyrrolidin-1-yl-ethyl)-1H-imidazol-2-yl]-piperidin-1-yl}-5,7-dihydro-pyrrolo[2,3-d]pyrimidin-6-one]
- IC50 (human HERG K+ channel): 13.9 µM
